Tests used:
[1] = biological target: T1, rat δ (C6-DOR) opioid receptor (Rattus norvegicus, UniProt P33533); test: Stimulation of [35S]GTPγS binding, DOR; assay type: biochemical; conditions: for EC50 (nm) DOR / EC50: [35S]GTPγS binding, C6-DOR membranes, mean ± standard error; for % stimulation DOR / Emax: [35S]GTPγS maximal stimulation compared with 10 μM standard DPDPE
T1 construct: expressed in transfected cells
Method in brief: (§1)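 Peptide-stimulated [35S]GTPγS (0.1 nM) binding, with 30 μM GDP, 5 mM MgCl2 and 100 mM NaCl at pH 7.4, was measured over 1 h at room temperature. Membranes came from rat MOR/DOR C6 or human KOR CHO cells. Filter-retained counts were expressed against 10 μM DAMGO, DPDPE or U69,593 respectively; maxima were fitted nonlinearly.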

[2] = biological target: T2, rat μ (C6-MOR) opioid receptor (Rattus norvegicus, UniProt P33535); test: Radioligand binding assay, [3H]diprenorphine displacement, MOR; conditions: displacement of 0.2 nM [3H]diprenorphine, C6-MOR membranes; mean ± standard error
T2 construct: expressed in transfected cells
Method in brief: (§2)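 C6-MOR/C6-DOR (rat) or CHO-KOR (human) membranes, 20 μg protein; 0.2 nM [3H]diprenorphine; 50 mM Tris-HCl pH 7.4; 1 h, RT; GF/C filtration, scintillation counting; NSB 10 μM naloxone; Ki by logistic fit, mean±SEM of ≥3 assays in duplicate.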

[3] = biological target: T3, human κ (CHO-KOR) opioid receptor (Homo sapiens, UniProt P41145); test: Stimulation of [35S]GTPγS binding, KOR; assay type: biochemical; conditions: for EC50 / EC50 (nm) KOR: [35S]GTPγS binding, CHO-KOR membranes, mean ± standard error; for Emax / % stimulation KOR: [35S]GTPγS maximal stimulation compared with 10 μM standard U-69,593
T3 construct: expressed in transfected cells
Description: In Vitro Pharmacology-Cell Lines and Membrane Preparations. All tissue culture reagents were purchased from Gibco Life Sciences (Grand Island, N.Y., U.S.). C6-rat glioma cells stably transfected with a rat μ (C6-MOR) or rat δ (C6-DOR) opioid receptor20 and Chinese hamster ovary (CHO) cells stably expressing a human K (CHO-KOR) opioid receptor21 were used for all in vitro assays. Cells were grown to confluence at 37° C. in 5% CO2 in Dulbecco's modified Eagle medium containing 10% fetal bovine serum and 5% penicillin/streptomycin. Membranes were prepared by washing confluent cells three times with ice cold phosphate buffered saline (0.9% NaCl, 0.61 mM Na2HPO4, 0.38 mM KH2PO4, pH 7.4). Cells were detached from the plates by incubation in warm harvesting buffer (20 mM HEPES, 150 mM NaCl, 0.68 mM EDTA, pH 7.4) and pelleted by centrifugation at 200 g for 3 min. The cell pellet was suspended in ice-cold 50 mM Tris-HCl buffer, pH 7.4, and homogenized with a Tissue Tearor (Biospec Products, Inc., Bartlesville, Okla., U.S.) for 20 s at setting 4. The homogenate was centrifuged at 20 000 g for 20 min at 4° C., and the pellet was rehomogenized in 50 mM Tris-HCl with a Tissue Tearor for 10 s at setting 2, followed by recentrifugation. The final pellet was resuspended in 50 mM Tris-HCl and frozen in aliquots at […]. Protein concentration was determined via Bradford assay using bovine serum albumin as the standard.
Stimulation of [^35S]GTPyS Binding. Agonist stimulation of [35S]guanosine 5′-O-[γ-thio]triphosphate ([^35S]GTPγS, 1250 Ci, 46.2 TBq/mmol) binding was measured as described previously Briefly, membranes (10-20 μg of protein/tube) were incubated 1 h at room temperature in GTPyS buffer (50 mM Tris-HCl, 100 mM NaCl, 5 mM MgCl2, pH 7.4) containing 0.1 nM [^35S]GTPγS, 30 μM guanosine diphosphate (GDP), and varying concentrations of test peptides. Peptide stimulation of [^35S]GTPyS was compared with 10 μM standard compounds [D-Ala^2,N-MePhe^4,Gly-ol]encephalin (DAMGO) at MOR, D-Pen^2,5-enkephalin (DPDPE) at DOR, or […] at KOR. The reaction was terminated by rapidly filtering through GF/C filters and washing 10 times with GTPyS buffer, and retained radioactivity was measured as described above. The results presented are the mean±standard error from at least three separate assays performed in duplicate; maximal stimulation was determined using nonlinear regression analysis with GraphPad Prism (GraphPad Software Inc., La Jolla, Calif.).

[4] = biological target: T1, rat δ (C6-DOR) opioid receptor; test: Radioligand binding assay, [3H]diprenorphine displacement, DOR; conditions: displacement of 0.2 nM [3H]diprenorphine, C6-DOR membranes; mean ± standard error
Method in brief: as §2

[5] = biological target: T3, human κ (CHO-KOR) opioid receptor; test: Radioligand binding assay, [3H]diprenorphine displacement, KOR; conditions: displacement of 0.2 nM [3H]diprenorphine, CHO-KOR membranes; mean ± standard error
Method in brief: as §2

[6] = biological target: T2, rat μ (C6-MOR) opioid receptor; test: Stimulation of [35S]GTPγS binding, MOR; assay type: biochemical
Method in brief: as §1

[7] = [35S]GTPγS binding, C6-MOR membranes, mean ± standard error
[8] = [35S]GTPγS maximal stimulation compared with 10 μM standard DAMGO

T1 sequence (P33533 whole entry): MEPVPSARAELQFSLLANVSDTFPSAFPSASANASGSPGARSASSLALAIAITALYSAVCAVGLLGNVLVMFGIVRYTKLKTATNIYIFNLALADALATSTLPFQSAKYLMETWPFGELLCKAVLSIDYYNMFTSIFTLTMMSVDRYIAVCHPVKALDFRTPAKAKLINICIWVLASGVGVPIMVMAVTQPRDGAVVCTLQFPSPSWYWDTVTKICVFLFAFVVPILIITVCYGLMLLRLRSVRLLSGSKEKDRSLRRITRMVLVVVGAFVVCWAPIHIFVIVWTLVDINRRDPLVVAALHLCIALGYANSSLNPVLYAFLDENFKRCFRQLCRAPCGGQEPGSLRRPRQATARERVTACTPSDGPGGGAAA
T3 sequence (P41145 whole entry): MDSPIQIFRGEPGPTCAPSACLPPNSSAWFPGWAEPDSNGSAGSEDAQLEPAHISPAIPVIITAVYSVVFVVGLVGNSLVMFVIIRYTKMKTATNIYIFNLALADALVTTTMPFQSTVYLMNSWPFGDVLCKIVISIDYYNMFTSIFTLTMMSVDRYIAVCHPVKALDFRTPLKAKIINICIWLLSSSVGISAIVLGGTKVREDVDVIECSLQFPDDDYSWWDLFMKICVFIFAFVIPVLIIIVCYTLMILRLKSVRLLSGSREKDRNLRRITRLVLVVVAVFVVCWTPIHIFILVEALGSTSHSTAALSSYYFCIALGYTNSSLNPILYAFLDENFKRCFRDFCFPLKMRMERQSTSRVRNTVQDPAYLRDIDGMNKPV
T2 sequence (P33535 whole entry): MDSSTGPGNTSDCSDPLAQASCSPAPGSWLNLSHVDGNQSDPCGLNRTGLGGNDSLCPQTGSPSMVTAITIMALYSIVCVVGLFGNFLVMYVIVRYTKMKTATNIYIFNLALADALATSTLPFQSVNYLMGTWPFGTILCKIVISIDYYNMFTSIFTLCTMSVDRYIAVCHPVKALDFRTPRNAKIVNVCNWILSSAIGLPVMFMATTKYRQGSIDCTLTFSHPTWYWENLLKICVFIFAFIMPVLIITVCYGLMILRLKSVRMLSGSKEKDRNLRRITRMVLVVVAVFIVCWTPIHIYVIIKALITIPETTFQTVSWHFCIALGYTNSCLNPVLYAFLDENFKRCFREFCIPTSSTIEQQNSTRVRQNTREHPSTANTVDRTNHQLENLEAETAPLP

Row | SMILES | EC50 (nm) DOR [1] | % stimulation DOR [1] | Ki [2] | EC50 [3] | Emax [3] | Ki [4] | Ki [5] | EC50 [6, 7] | Emax [6, 8] | EC50 (nm) MOR [6, 7] | % stimulation MOR [6, 8] | EC50 [1] | Emax [1] | EC50 (nm) KOR [3] | % stimulation KOR [3]
1 | Cc1cc(O)cc(C)c1C[C@H](N)C(=O)N[C@@H]1CCNc2ccc(S(=O)(=O)c3ccccc3)cc21 [Compound 1052] | dns | dns | 3.01 ± 1.87 nM | 1310 nM | 38.5% | 2.92 ± 0.41 nM | 26 ± 7.12 nM | 12.9 ± 1.35 nM | 68.9 ± 10.3% |  |  |  |  |  | 
2 | Cc1cc(O)cc(C)c1C[C@H](N)C(=O)N[C@@H]1CCNc2ccc(CN3CCC4(CCCCC4)CC3)cc21 [Compound 1060] | dns | dns | 0.22 ± 0.1 nM | 92.1 ± 15.5 nM | 71.6 ± 4.38% | 36.5 ± 18.9 nM | 2.44 ± 0.99 nM |  |  | dns | dns |  |  |  | 
3 | Cc1cc(C(N)=O)cc(C)c1C[C@H](N)C(=O)N[C@@H]1CCNc2ccc(Cc3ccccc3)cc21 [Compound 1048] |  |  | 0.6 ± 0.12 nM |  |  | 32.3 ± 7.57 nM | 170 ± 49.1 nM | 9.2 ± 4.58 nM | 97.9 ± 4.71% |  |  | 1590 ± 738 nM | 24.5 ± 3.25% | dns | dns
4 | Cc1cc(O)cc(C)c1C[C@H](N)C(=O)N[C@@H]1CCNc2ccc(Cc3cc4ccccc4o3)cc21 [Compound 1065] | dns |  | 0.11 ± 0.03 nM |  |  | 4.76 ± 1.9 nM | 41.4 ± 22.4 nM | 1.14 ± 0.49 nM | 97.9 ± 1.43% |  |  |  | 13.9% | dns | dns
5 | Cc1cc(O)cc(C)c1C[C@H](N)C(=O)N[C@@H]1CCOc2ccc(Cc3ccccc3)cc21 [Compound 1111] |  |  | 0.046 ± 0.028 nM | 662 ± 152 nM | 28.3 ± 6.71% | 8.65 ± 1.61 nM | 58.3 ± 14.1 nM | 4.85 ± 2.14 nM | 69.7 ± 5.97% |  |  | 118 ± 2.45 nM | 8.97 ± 4.78% |  | 
6 | Cc1cc(O)cc(C)c1C[C@H](N)C(=O)N(C1CC1)[C@@H]1CCNc2ccc(Cc3ccccc3)cc21 [Compound 1015] |  |  | 25.6 ± 9.83 nM |  | -1.84 ± 1.83% | 23.4 ± 10.9 nM | 58.9 ± 28.5 nM | 131 ± 21.2 nM | 15.8 ± 3.75% |  |  | 149 ± 42 nM | 19.5 ± 2.83% |  | 
7 | Cc1cc(O)cc(C)c1C[C@H](N)C(=O)N[C@H]1CCNc2ccc(Cc3ccc(F)cc3)cc21 [Compound 1010] |  |  | 10 nM |  | 0% | 190 nM | 90 nM |  | 58% |  |  |  | 12% |  | 
8 | Cc1cc(O)cc(C)c1C[C@H](N)C(=O)N[C@H]1CCN(C)c2ccc(Cc3ccccc3)cc21 [Compound 1005] |  |  | 71.4 ± 18.4 nM |  | 1.6 ± 1.4% | 138 ± 29.8 nM | 632 ± 78 nM | 214 ± 41 nM | 72.2 ± 3.6% |  |  |  | 0% |  | 
9 | Cc1cc(O)cc(C)c1C[C@H](N)C(=O)N[C@H]1c2cc(Cc3ccccc3)ccc2NC[C@H]1C [Compound 1078] |  |  | 0.75 ± 0.03 nM | 900 ± 326 nM | 26.4 ± 5.75% | 2.02 ± 0.21 nM | 17.7 ± 2.24 nM | 3.14 ± 1.51 nM | 80.2 ± 7.89% |  |  | 30.9 nM | 21.4% |  | 
10 | CC(=O)N1CC[C@@H](NC(=O)[C@@H](N)Cc2c(C)cc(O)cc2C)c2cc(CN3CCc4cccc(C(F)(F)F)c4C3)ccc21 [Compound 1066] | dns | dns | 0.16 ± 0.01 nM |  |  | 3.05 ± 0.88 nM | 59.2 ± 12.4 nM | 1.25 ± 0.44 nM | 55.1 ± 2.83% |  |  |  |  | dns | dns
11 | Cc1cc(O)cc(C)c1C[C@H](N)C(=O)NC1CCc2ccc(Cc3ccccc3)cc21 (stereo partly shown) [Compound 1114] |  |  | 0.55 ± 0.09 nM | 1600 nM | 3.7 ± 4.06% | 29.9 ± 10.1 nM | 143 ± 45.4 nM | 18.3 ± 8.14 nM | 42.6 ± 8.65% |  |  |  | 3.07 ± 1.82% |  | 
12 | Cc1ccc(Cc2ccc3c(c2)[C@@H](NC(=O)[C@@H](N)Cc2c(C)cc(O)cc2C)CCN3)cc1 [Compound 1008] |  |  | 11 nM |  | 0% | 582 nM | 50 nM |  | 55% |  |  |  | 3% |  | 
13 | COc1cc(Cc2ccccc2)cc2c1NCC[C@H]2NC(=O)[C@@H](N)Cc1c(C)cc(O)cc1C [Compound 1063] |  |  | 0.24 ± 0.11 nM |  |  | 3.08 ± 1 nM | 29.9 ± 10.4 nM | 2.5 ± 0.45 nM | 84.1 ± 0.96% |  |  | 63.3 ± 12.2 nM | 50.8 ± 9.61% | dns | dns
14 | Cc1cc(O)cc(C)c1C[C@H](N)C(=O)N[C@@H]1CCCc2ccccc21 [Compound 1113] |  |  | 25.6 ± 10.9 nM |  | -1.05% | 640 ± 218 nM | 2060 ± 582 nM |  | 3.44 ± 2.09% |  |  |  | -0.76 ± 0.62% |  | 
15 | CCCN1CC[C@@H](NC(=O)[C@@H](N)Cc2c(C)cc(O)cc2C)c2cc(Cc3ccccc3)ccc21 [Compound 1006] |  |  | 0.34 ± 0.21 nM | 5010 ± 1020 nM | 38.2 ± 3.42% | 1.72 ± 0.61 nM | 71.7 ± 20 nM | 16.4 ± 8.18 nM | 83.1 ± 3.25% |  |  | 2330 ± 1030 nM | 39.3 ± 5.45% |  | 
16 | Cc1cc(O)cc(C)c1C[C@H](N)C(=O)N[C@@H]1CCNc2ccc(Sc3ccccc3)cc21 [Compound 1053] | dns | dns | 0.45 ± 0.11 nM | 1120 nM | 22.4% | 5.08 ± 0.52 nM | 10.8 ± 6.24 nM | 4.67 ± 1.44 nM | 51.6 ± 6.43% |  |  |  |  |  | 
17 | CCCCCc1ccc2c(c1)[C@H](NC(=O)[C@@H](N)Cc1c(C)cc(O)cc1C)CCN2 [Compound 1013] |  |  | 0.22 ± 0.09 nM | 543 ± 148 nM | 23.7 ± 0.83% | 8.81 ± 2.89 nM | 22.5 ± 10.3 nM | 12 ± 5.77 nM | 20.2 ± 7.11% |  |  |  | 0% |  | 
18 | CC(=O)N1CC[C@@H](NC(=O)[C@@H](N)Cc2c(C)cc(O)cc2C)c2cc(-c3ccccc3)ccc21 [Compound 1067] |  |  | 0.88 ± 0.4 nM | 291 ± 32.5 nM | 69.1 ± 5.04% | 1.32 ± 0.37 nM | 35.8 ± 16.8 nM | 5.64 ± 0.35 nM | 51.3 ± 8.48% |  |  | 1520 ± 889 nM | 37.4 ± 6.31% |  | 
19 | Cc1cc(O)cc(C)c1C[C@H](N)C(=O)N[C@@H]1C[C@@H](C)Nc2ccc(Cc3ccccc3)cc21 [Compound 1014] |  |  | 1.24 ± 0.5 nM | 4070 nM | 28.9 ± 12.3% | 87.2 ± 56.2 nM | 238 ± 21.7 nM | 8.93 ± 4 nM | 87.8 ± 2% |  |  | 627 ± 88.9 nM | 44.9 ± 8.25% |  | 
20 | Cc1cc(O)cc(C)c1C[C@H](N)C(=O)N[C@@H]1CCN2CCCc3cc(Cc4ccccc4)cc1c32 [Compound 1069] |  |  | 0.39 ± 0.14 nM | 1000 nM | 78.4% | 2.26 ± 0.8 nM | 6.62 ± 2.57 nM | 1.12 ± 0.52 nM | 95.2 ± 3.99% |  |  | 570 ± 298 nM | 50.4 ± 13.7% |  | 
